Assay in all cases: biochemical
Common to all, as to parameters: Thermo Fisher SelectScreen kinase panel: Z'-LYTE and Adapta activity, LanthaScreen binding

One assay addresses EPHA8 (Homo sapiens, UniProt P29322). The procedure, abridged: (§1)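 Single-concentration panel: 10 µM GNE684 in KINOMEscan scanMAX binding (468 kinases) and in a 221-kinase panel run as Z'-LYTE/Adapta activity or LanthaScreen binding assays.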
A further assay concerns the target T1, MSK1 (Homo sapiens, UniProt O75582).
T1 construct: gene RPS6KA5
The procedure, abridged:
as §1

A further assay deals with T2, PKC_theta (Homo sapiens, UniProt Q04759).
T2 construct: gene PRKCQ
The procedure, abridged:
as §1

A further assay has as its target T3, Ron (Homo sapiens, UniProt Q04912).
T3 construct: gene MST1R
The procedure, abridged:
as §1

A further assay concerns the target GRK6 (Homo sapiens, UniProt P43250). The essentials: as §1
The next assay concerns the target T4, PKD1 (Homo sapiens, UniProt Q15139).
T4 construct: gene PRKD1
The essentials:
as §1

The next assay addresses T5, RSK2 (Homo sapiens, UniProt P51812).
T5 construct: gene RPS6KA3
The essentials:
as §1

The target in the next assay is EPHA3 (Homo sapiens, UniProt P29320). The procedure, abridged:
as §1

A further assay has as its target CLK2 (Homo sapiens, UniProt P49760). The procedure, abridged:
as §1

The next assay deals with T6, eEF-2K (Homo sapiens, UniProt O00418).
T6 construct: gene EEF2K
The essentials: as §1

Another assay has as its target ACVR1B (Homo sapiens, UniProt P36896). The essentials: as §1
The next assay deals with FES (Homo sapiens, UniProt P07332). The procedure, abridged:
as §1

The next assay has as its target T7, CamKII_alpha (Homo sapiens, UniProt Q9UQM7).
T7 construct: gene CAMK2A
The procedure, abridged: as §1

In the next assay the target is TTK (Homo sapiens, UniProt P33981). The essentials: as §1
In a further assay the target is T8, Aurora_B (Homo sapiens, UniProt Q96GD4).
T8 construct: gene AURKB
The procedure, abridged: as §1

For a further assay, the target named is HIPK1 (Homo sapiens, UniProt Q86Z02). The procedure, abridged: as §1
In a further assay the target is NLK (Homo sapiens, UniProt Q9UBE8). The procedure, abridged:
as §1

The target of a further assay is PASK (Homo sapiens, UniProt Q96RG2). The procedure, abridged: as §1
Another assay addresses T9, CaMKI_delta (Homo sapiens, UniProt Q8IU85).
T9 construct: gene CAMK1D
The procedure, abridged:
as §1

The target in another assay is T10, p38-beta (Homo sapiens, UniProt Q15759).
T10 construct: gene MAPK11
The essentials: as §1

A further assay concerns the target GRK5 (Homo sapiens, UniProt P34947). The essentials: as §1
The next assay deals with PRKAA1 (Homo sapiens, UniProt Q13131). The essentials:
as §1

In another assay the target is TYK2 (Homo sapiens, UniProt P29597). The procedure, abridged:
as §1

Molecules are shown by their SMILES.

Sequence of EPHA8 (P29322 whole entry): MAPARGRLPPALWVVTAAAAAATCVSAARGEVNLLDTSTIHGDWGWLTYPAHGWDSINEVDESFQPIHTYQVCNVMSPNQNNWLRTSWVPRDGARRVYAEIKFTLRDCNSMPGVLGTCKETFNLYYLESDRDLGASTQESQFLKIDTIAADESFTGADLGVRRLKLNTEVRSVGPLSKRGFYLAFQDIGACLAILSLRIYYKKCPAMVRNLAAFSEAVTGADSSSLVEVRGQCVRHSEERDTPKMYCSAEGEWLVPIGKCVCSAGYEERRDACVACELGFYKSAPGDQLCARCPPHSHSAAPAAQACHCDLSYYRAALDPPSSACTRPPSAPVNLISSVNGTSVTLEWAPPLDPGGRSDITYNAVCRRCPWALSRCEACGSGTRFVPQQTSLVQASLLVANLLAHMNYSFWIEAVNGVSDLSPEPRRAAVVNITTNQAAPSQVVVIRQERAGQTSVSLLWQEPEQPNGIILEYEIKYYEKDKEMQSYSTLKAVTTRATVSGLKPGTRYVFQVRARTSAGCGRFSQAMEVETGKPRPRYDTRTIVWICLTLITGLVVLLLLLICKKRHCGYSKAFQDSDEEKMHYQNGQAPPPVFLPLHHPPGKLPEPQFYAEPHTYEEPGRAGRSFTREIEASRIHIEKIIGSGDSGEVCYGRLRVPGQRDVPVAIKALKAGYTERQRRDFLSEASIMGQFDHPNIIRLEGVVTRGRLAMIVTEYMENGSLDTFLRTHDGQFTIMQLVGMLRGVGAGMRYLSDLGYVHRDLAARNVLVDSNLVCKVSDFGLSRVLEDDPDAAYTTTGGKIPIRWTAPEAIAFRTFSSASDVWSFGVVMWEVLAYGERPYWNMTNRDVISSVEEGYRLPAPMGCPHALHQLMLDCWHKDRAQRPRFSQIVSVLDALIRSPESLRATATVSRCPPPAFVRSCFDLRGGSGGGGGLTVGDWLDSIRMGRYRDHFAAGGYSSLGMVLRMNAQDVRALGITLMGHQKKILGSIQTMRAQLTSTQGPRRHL
Sequence of GRK5 (P34947 whole entry): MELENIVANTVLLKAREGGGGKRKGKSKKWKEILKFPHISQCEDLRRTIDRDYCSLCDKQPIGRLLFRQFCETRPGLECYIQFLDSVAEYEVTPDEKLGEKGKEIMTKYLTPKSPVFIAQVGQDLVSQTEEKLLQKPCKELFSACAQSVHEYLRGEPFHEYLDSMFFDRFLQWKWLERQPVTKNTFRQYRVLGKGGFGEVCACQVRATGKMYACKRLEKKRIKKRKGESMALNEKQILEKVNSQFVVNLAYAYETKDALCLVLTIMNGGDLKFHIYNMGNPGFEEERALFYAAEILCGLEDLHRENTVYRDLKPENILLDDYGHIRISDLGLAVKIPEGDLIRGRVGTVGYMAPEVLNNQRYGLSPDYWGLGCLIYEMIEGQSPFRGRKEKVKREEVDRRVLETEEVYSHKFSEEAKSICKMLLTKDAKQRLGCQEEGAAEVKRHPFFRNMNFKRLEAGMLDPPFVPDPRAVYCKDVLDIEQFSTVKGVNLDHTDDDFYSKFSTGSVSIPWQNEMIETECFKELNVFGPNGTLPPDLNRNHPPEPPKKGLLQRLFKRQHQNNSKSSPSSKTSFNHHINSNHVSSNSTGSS
T6 sequence (O00418 whole entry): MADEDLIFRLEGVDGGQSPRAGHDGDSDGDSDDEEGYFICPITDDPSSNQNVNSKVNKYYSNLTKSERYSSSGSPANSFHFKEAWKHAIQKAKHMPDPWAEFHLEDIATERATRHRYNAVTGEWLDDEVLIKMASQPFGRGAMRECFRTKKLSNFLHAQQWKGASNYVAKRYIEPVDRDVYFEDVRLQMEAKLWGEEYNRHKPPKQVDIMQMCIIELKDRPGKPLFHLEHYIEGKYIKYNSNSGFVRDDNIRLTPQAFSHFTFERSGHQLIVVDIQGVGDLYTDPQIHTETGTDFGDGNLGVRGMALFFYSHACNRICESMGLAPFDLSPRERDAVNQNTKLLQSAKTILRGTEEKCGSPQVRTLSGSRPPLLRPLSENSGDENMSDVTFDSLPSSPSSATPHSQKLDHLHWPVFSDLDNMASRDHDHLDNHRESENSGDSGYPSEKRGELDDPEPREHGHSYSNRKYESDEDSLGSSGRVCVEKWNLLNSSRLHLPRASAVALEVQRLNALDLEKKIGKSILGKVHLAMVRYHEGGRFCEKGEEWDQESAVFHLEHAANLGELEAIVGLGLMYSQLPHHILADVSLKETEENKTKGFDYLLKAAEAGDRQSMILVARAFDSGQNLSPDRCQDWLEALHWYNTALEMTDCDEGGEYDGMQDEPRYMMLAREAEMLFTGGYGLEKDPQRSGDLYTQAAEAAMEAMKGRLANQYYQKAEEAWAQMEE
Sequence of PRKAA1 (Q13131 whole entry): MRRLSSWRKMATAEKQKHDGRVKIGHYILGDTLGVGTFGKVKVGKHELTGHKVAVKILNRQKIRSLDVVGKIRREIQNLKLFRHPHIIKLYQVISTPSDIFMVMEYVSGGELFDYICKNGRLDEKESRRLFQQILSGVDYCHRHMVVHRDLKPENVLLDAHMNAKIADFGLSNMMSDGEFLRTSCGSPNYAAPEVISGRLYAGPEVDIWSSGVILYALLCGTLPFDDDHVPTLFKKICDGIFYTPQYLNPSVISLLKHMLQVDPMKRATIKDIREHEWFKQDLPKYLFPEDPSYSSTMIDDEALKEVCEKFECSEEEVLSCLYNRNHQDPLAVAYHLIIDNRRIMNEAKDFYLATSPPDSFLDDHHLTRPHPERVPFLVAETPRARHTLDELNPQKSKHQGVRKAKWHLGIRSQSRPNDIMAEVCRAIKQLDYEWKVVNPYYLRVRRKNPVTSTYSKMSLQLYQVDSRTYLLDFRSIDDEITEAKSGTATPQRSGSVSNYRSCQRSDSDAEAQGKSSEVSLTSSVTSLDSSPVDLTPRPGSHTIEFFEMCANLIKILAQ
Sequence of CLK2 (P49760 whole entry): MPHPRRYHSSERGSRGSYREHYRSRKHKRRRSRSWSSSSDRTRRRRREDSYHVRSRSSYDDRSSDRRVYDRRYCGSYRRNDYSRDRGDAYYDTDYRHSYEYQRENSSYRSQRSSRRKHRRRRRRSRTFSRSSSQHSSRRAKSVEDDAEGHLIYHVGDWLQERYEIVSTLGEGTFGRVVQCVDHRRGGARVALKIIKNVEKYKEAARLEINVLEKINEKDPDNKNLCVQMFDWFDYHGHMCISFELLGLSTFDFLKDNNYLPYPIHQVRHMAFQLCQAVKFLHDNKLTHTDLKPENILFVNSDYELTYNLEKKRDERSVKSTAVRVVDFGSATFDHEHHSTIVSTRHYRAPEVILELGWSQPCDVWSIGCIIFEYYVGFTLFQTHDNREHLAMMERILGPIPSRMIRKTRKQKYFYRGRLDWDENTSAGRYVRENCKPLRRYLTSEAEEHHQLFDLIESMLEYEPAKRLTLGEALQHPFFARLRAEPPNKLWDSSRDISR
T4 sequence (Q15139 whole entry): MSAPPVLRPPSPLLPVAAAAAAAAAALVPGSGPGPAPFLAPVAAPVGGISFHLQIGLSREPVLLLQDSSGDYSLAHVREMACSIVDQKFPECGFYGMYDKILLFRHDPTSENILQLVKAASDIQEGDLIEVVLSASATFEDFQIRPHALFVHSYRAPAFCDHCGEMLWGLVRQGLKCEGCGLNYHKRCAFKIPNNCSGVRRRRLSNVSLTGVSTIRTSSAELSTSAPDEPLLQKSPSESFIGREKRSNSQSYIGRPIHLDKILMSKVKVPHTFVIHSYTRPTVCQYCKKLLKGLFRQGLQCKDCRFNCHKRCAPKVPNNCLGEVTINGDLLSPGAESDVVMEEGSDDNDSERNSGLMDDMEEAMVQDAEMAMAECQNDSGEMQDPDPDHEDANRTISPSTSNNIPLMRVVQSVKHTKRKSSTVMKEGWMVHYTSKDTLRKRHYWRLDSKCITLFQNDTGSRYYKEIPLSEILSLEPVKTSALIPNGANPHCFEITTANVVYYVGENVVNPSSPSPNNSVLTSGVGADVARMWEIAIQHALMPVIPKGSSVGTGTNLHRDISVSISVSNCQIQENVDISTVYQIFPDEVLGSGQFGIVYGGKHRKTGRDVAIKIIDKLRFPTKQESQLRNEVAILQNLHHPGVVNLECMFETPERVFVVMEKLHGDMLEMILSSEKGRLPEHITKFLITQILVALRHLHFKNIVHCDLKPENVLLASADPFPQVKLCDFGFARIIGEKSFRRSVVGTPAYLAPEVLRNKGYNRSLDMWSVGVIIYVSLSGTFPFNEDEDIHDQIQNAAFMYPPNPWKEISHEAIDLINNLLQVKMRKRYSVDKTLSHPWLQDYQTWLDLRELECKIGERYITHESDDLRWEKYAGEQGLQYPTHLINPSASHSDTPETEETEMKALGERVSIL
T10 sequence (Q15759 whole entry): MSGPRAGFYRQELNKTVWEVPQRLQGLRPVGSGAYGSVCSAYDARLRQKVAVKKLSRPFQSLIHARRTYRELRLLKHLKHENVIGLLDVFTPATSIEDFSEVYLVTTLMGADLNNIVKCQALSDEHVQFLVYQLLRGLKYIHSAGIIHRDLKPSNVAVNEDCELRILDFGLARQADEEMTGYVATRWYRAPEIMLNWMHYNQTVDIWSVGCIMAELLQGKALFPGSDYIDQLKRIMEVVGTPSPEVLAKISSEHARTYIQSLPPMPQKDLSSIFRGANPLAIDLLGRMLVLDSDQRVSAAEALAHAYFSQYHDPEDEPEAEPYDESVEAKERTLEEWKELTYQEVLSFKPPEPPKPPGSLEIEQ
T8 sequence (Q96GD4 whole entry): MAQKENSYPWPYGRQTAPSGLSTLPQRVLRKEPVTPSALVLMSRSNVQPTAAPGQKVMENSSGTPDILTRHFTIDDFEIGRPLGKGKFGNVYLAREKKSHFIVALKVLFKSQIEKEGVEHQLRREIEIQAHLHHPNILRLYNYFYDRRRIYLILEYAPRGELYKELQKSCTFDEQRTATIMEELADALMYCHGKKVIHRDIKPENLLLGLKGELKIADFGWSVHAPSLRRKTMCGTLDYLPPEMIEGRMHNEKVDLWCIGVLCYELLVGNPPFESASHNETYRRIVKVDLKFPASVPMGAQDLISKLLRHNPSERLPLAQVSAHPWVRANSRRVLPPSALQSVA

Turning to `COc1cc2c(cn1)N(C)C(=O)[C@@H](NC(=O)c1nc3n(n1)[C@H](c1ccccc1)CC3)CC2` [GNE684, (S)-N-((S)-7-methoxy-1-methyl-2-oxo-2,3,4,5-tetrahydro-1H-pyrido[3,4-b]azepin-3-yl)-5-phenyl-6,7-dihydro-5H-pyrrolo[1,2-b][1,2,4]triazole-2-carboxamide], the inhibition at 10 µM is 5.5% on EPHA8; -4% at MSK1; -5% at PKC_theta; 4.5% at Ron; 6.5% on GRK6; 3% on PKD1. Moreover, the inhibition at 10 µM at RSK2 is 4%; on EPHA3, -3.5%; on CLK2 it was 2.5%; at eEF-2K, 0%; at ACVR1B it was -2%; at FES, 3%. Besides, the inhibition at 10 µM on CamKII_alpha is 6.5%; on TTK, -2.5%; at Aurora_B, 6.5%; at HIPK1, 0%; at NLK it was -0.5%; at PASK, 4.5%. The inhibition at 10 µM at CaMKI_delta is 7.5%; on p38-beta, 4.5%; on GRK5, 4.5%; at PRKAA1, -3%; on TYK2, 3.5%.

The values are drawn from paper PMC7206119, “RIP1 inhibition blocks inflammatory diseases but not tumor growth or metastases” (Cell Death and Differentiation, 2019).
